Results reported in patent US10875860B2, “Azaindenoisoquinoline compounds and uses thereof” (Purdue Research Foundation, priority 2016, dated 2020).
Where two headings read alike, the source gives them in different places.

What was measured:
MCF-7 = experiment: NCI-60 cytotoxicity, MCF-7; details: Homo sapiens, MCF7, read-out: Cytotoxicity (GI50) Breast MCF-7
recombinant human TDP2 = biological target: T1, recombinant human TDP2 (Homo sapiens, UniProt O95551); experiment: Recombinant Tdp2 assay; type: biochemical
T1 sequence (O95551 1-362): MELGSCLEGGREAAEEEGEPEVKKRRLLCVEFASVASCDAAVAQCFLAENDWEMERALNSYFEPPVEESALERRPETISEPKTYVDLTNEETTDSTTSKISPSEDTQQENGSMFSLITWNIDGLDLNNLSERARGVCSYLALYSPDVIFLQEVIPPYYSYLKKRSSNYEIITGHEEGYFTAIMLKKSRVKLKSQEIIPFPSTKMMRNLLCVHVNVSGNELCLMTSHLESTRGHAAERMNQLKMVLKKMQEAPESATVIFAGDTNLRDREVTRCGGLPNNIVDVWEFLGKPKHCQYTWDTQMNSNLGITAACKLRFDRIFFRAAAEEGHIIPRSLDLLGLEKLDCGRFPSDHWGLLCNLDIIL
Procedure: TDP2 reactions were carried out as described previously with the following modifications. […] Reactions were terminated and treated similarly to whole-cell extract and recombinant Tdp1 reactions (see previous paragraph).

OVCAR-3 = experiment: NCI-60 cytotoxicity, OVCAR-3; details: Homo sapiens, OVCAR-3, read-out: Cytotoxicity (GI50) Ovarian Ovcar-3
SN12C = experiment: NCI-60 cytotoxicity, SN12C; details: Homo sapiens, read-out: Cytotoxicity (GI50) Renal SN12C
HOP-62 = experiment: NCI-60 cytotoxicity, HOP-62; details: Homo sapiens, HOP-62, read-out: Cytotoxicity (GI50) Lung HOP-62
SF-539 = experiment: NCI-60 cytotoxicity, SF-539; details: Homo sapiens, SF-539, read-out: Cytotoxicity (GI50) CNS SF-539
Tdp1 = Tdp1 (Homo sapiens, UniProt Q9NUW8); experiment: Recombinant Tdp1 assay; type: biochemical
[1] = test system: NCI-60 panel of human cancer cell lines; experiment: NCI-60 screen, mean graph midpoint over all cell lines; details: Homo sapiens, read-out: Cytotoxicity (GI50) MGM
Top1 = biological target: T2, Top1 (Homo sapiens, UniProt P11387); experiment: Top1-mediated DNA cleavage assay; type: biochemical; parameters: Top1 inhibitory activity level / Top1 inhibitory activity score: key to the marks not given beside the values; details: for Enzyme Inhibitory Activity Top1: DNA cleavage relative to 1 μM MJ-III-65 (19) and 1 μM camptothecin (18); for Top1 inhibitory activity level: series 1
T2 sequence (P11387 1-765): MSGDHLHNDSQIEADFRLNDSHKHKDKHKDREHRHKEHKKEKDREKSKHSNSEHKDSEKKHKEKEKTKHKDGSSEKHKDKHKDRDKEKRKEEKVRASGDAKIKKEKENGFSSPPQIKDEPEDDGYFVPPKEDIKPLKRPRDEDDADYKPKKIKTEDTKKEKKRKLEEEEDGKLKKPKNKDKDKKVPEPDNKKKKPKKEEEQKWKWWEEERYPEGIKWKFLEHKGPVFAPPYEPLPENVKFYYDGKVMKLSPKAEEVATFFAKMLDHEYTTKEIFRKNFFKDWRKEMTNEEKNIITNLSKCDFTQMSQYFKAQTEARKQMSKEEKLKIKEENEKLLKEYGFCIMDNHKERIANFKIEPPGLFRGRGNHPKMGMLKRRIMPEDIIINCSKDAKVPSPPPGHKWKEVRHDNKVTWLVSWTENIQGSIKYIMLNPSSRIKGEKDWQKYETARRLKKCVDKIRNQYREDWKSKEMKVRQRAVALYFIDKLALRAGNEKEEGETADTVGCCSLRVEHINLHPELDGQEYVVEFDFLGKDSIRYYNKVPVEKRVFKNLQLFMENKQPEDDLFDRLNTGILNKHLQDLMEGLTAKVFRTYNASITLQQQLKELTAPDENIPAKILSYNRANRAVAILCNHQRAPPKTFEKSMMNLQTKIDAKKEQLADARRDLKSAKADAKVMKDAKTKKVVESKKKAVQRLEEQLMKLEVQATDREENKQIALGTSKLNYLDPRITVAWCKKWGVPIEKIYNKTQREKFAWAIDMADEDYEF

UACC-62 = experiment: NCI-60 cytotoxicity, UACC-62; details: Homo sapiens, UACC-62, read-out: Cytotoxicity (GI50) Melanoma UACC-62
DU-145 = experiment: NCI-60 cytotoxicity, DU-145; type: cell-based; details: Homo sapiens, single determinations, Table 2, read-out: Cytotoxicity (GI50) Prostate DU-145
HCT-116 = experiment: NCI-60 cytotoxicity, HCT-116; type: cell-based; details: Homo sapiens, single determinations, Table 2, read-out: Cytotoxicity (GI50) Colon HCT-116
[2] = semiquantitative scale, in duplicate, Table 1, read-out: Enzyme Inhibitory Activity Tdp2
[3] = semiquantitative scale, in duplicate, Table 1, read-out: Enzyme Inhibitory Activity Tdp1
[4] = read-out: Enzyme Inhibitory Activity Tdp2 (IC50)
[5] = determined in duplicate, Table 2, read-out: Enzyme Inhibitory Activity Tdp1 (IC50)
[6] = determined in duplicate, Table 2, read-out: Enzyme Inhibitory Activity Tdp2 (IC50)

Chain of Tdp1 (Q9NUW8 whole entry): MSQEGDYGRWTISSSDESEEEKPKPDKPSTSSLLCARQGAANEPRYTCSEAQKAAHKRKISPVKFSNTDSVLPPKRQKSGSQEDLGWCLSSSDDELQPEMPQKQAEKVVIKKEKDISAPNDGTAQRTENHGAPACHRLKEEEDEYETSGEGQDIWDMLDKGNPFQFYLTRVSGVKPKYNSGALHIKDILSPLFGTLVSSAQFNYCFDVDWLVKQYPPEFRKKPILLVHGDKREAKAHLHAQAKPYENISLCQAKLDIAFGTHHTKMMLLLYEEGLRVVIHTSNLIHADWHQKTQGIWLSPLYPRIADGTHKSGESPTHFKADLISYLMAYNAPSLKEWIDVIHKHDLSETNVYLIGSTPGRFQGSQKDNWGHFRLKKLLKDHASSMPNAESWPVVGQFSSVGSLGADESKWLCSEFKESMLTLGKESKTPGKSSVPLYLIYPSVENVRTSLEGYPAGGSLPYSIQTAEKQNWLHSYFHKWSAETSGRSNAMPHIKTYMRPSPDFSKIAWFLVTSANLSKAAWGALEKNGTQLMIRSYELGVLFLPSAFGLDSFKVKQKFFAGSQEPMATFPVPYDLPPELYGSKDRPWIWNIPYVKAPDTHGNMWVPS

| Compound | GI50 (MCF-7) [nM] | IC50 (recombinant human TDP2; [2]) [nM] | melting point [°C] | GI50 (OVCAR-3) [nM] | GI50 (SN12C) [nM] | GI50 (HOP-62) [nM] | GI50 (SF-539) [nM] | IC50 (Tdp1; [3]) [nM] | GI50 [1] [nM] | Enzyme Inhibitory Activity Top1 (Top1; Table 1) | Top1 inhibitory activity level (Top1) | GI50 (UACC-62) [nM] | IC50 (recombinant human TDP2; [4]) [nM] | GI50 (DU-145) [nM] | GI50 (HCT-116) [nM] | IC50 (Tdp1; [5]) [nM] | Enzyme Inhibitory Activity Top1 (Top1; Table 2) | IC50 (recombinant human TDP2; [6]) [nM] |
| --- | --- | --- | --- | --- | --- | --- | --- | --- | --- | --- | --- | --- | --- | --- | --- | --- | --- | --- |
| COc1cnc2c(c1)C(=O)c1c-2n(CCCNCCN2CCOCC2)c(=O)c2cc([N+](=O)[O-])ccc12 [Compound 13, 7-Aza-5,6-dihydro-9-methoxy-6-[3-((2-morpholinoethyl)amino)propyl]-3-nitro-5,11-dioxo-11H-indeno[1,2-c]isoquinoline] | 32 | 37000 to 111000 | 214 to 216 | 315 | 80 | 150 | 311 | 12000 to 37000 | 177 | +++ | +++ | 44 |  |  |  |  |  |  |
| COc1cnc2c(c1)C(=O)c1c-2n(CCCNC(C)C)c(=O)c2cc([N+](=O)[O-])ccc12 [Compound 14, 7-Aza-5,6-dihydro-6-[3-(isopropylamino)propyl]-9-methoxy-3-nitro-5,11-dioxo-11H-indeno[1,2-c]isoquinoline] | 12 | 37000 to 111000 | 278 to 280 | 82 | 39 | 85 | 51 | 12000 to 37000 | 58 | ++++ | ++++ | 19 |  |  |  |  |  |  |
| CCNCCCn1c2c(c3ccc([N+](=O)[O-])cc3c1=O)C(=O)c1cc(OC)cnc1-2 [Compound 15, 7-Aza-6-[3-(ethylamino)propyl]-5,6-dihydro-9-methoxy-3-nitro-5,11-dioxo-11H-indeno[1,2-c]isoquinoline] | 19 | 37000 to 111000 | 266 to 268 | 62 | 53 | 107 | 70 | 1000 to 12000 | 79 | ++++ | ++++ | 27 |  |  |  |  |  |  |
| COc1cnc2c(c1)C(=O)c1c-2n(CCCNC2=NCCS2)c(=O)c2cc(Cl)ccc12 [Compound 16c, 3-Chloro-6-(3-((4,5-dihydrothiazol-2-yl)amino)propyl)-9-methoxy-5H-pyrido[3′,2′:4,5]cyclopenta[1,2-c]isoquinoline-5,11(6H)-dione] | 36 |  | 295 to 298 | 1300 |  | 42 | 470 |  | 390 |  |  | 95 | 32900 ± 5700 | 92 | 350 | 11900 ± 3900 | ++ |  |
| CNCCCn1c2c(c3ccc(Cl)cc3c1=O)C(=O)c1cc(OC)cnc1-2 [Compound 16g, 3-Chloro-9-methoxy-6-(3-(methylamino)propyl)-5H-pyrido[3′,2′:4,5]cyclopenta[1,2-c]isoquinoline-5,11(6H)-dione] | 46 |  | 274 to 275 | 1410 | 1180 | 220 | 730 |  | 600 |  |  | 574 |  | 331 | 550 | 16000 ± 3200 |  | > 111000 |
| COc1cnc2c(c1)C(=O)c1c-2n(CCCNC2=NCCS2)c(=O)c2cc(F)ccc12 [Compound 17c, 6-(3-((4,5-Dihydrothiazol-2-yl)amino)propyl)-3-fluoro-9-methoxy-5H-pyrido[3′,2′:4,5]-cyclopenta-[1,2-c]isoquinoline-5,11(6H)-dione] | 33 |  | 226 to 250 | 567 | 238 | 59 | 305 |  | 269 |  |  | 344 | 61600 ± 14000 | 144 | 82 | > 111000 | ++ |  |
| COc1cnc2c(c1)C(=O)c1c-2n(CCCNC(C)C)c(=O)c2cc(F)ccc12 [Compound 17f, 3-Fluoro-6-(3-(isopropylamino)propyl)-9-methoxy-5H-pyrido[3′,2′:4,5]cyclopenta[1,2-c]isoquinoline-5,11(6H)-dione] | 31 |  | 285 to 292 | 190 | 164 | 107 | 248 |  | 165 |  |  | 271 |  | 210 | 93 | > 111000 | ++ | > 111000 |
| CNCCCn1c2c(c3ccc(F)cc3c1=O)C(=O)c1cc(OC)cnc1-2 [Compound 17g, 3-Fluoro-9-methoxy-6-(3-(methylamino)propyl)-5H-pyrido[3′,2′:4,5]cyclopenta[1,2-c]isoquinoline-5,11(6H)-dione] | 34 |  | 259 to 265 | 263 | 211 | 142 | 368 |  | 245 |  |  | 608 |  | 202 | 143 | > 111000 | + | 108000 ± 3000 |
| COc1cnc2c(c1)C(=O)c1c-2n(CCCN2CCCC2)c(=O)c2cc(F)ccc12 [Compound 17i, 3-Fluoro-9-methoxy-6-(3-(pyrrolidin-1-yl)propyl)-5H-pyrido[3′,2′:4,5]cyclopenta[1,2-c]isoquinoline-5,11(6H)-dione] | 48 |  | 157 to 162 | 307 | 241 | 212 | 360 |  | 288 |  |  | 471 |  | 211 | 153 | > 111000 | +++ | > 111000 |
